Results from US20060142391A1, “PPARGAMMA-ACTIVATING PHARMACEUTICAL COMPOSITION” (priority 2001, published 2006).

Assays:
[1] = system: GAL4 (yeast transcription activator)—PPARγ fusion protein; assay: PPARγ agonist activity assay (GAL4-PPARγ / CAT reporter in COS-1 cells); format: cell-based; details: for PPARγ agonist activity compared with 15-deoxy-PG J2 positive control: 1 μM; for PPARγ agonist activity relative to the negative control group with no drug added: concentration of 1 μM
Experimental: COS-1 cells were cotransfected with a plasmid for expressing a GAL4 (yeast transcription activator)—PPARγ fusion protein (effector plasmid) and a reporter plasmid 17 M2 CAT (GAL4 responsive sequence+TK promoter+chloramphenicol acetyltransferase cDNA), and then test compounds were added to the culture medium and CAT activity was assayed after 24 hours and compared with a negative control (with no drug added) to calculate a relative CAT activity, whereby PPARγ agonist activity was evaluated ('90 Proc. Natl. Acad. Sci. USA 87, p. 9995; '94 J. B. C. 269, p. 32700; '95 ibid. p. 5858; '00 J.B.C. 275, p. 33201). […] Then, 4(S)-OH-DHA, 8(S)-OH-DHA, 10(S)-OH-DHA, 11(S)-OH-DHA, 14(S)-OH-DHA and 17(S)-OH-DHA prepared in Example 1 were used as test compounds to assay PPARγ agonist activity as compared with 15-deoxy-PG J2 (from Bio Mol) known as a ligand for PPARγ as a positive control.

[2] = system: hereditary diabetes db/db mice; assay: Evaluation on hereditary diabetes mice (blood sugar); format: in vivo; details: oral 100 mg/kg for a week, n=6
Experimental: As a result of oral administration of 100 mg/kg of 8(S)-OH-DHA and 14(S)-OH-DHA to hereditary diabetes db/db mice (average body weight: 42 g, n=6, available from Sankyo Co., Ltd.) for a week, a significant decrease in blood sugar levels could be observed as compared with a negative control group (treated with 5% gum acacia as a vehicle) (Table 1).

rat aortic smooth muscle = details: contraction induced by thromboxane A2 analog U 46619 (2.5 μM); cited from earlier work
[3] = system: neutrophils and vascular endothelial cells; assay: In vitro model simulating vascular inflammation induced by TNFα (transwell); format: cell-based, bovine; details: 30, 3 or 0.3 μM together with TNFα
Experimental: An in vitro model simulating vascular inflammation was prepared according to the method described in “Textbook on Biopharmaceutical Experiments, 12 Inflammation and Allergy II”, pp. 327-341 (edited by Kazuo Ouchi, published by Hirokawa Publishing Co., May 15, 1993).
Transwells (from Kurabo Industries, Ltd.) divided into upper and lower chambers by a porous polycarbonate membrane having a pore size of 3 μm were used and a layer of bovine endothelial cells were coated on the bottom of the membrane and incubated at 37° C. under 5% CO2 for 80 minutes. […]
To the upper chamber of the transwells was added a suspension of neutrophils containing 4(S)-OH-DHA at a final concentration of 30, 3 or 0.3 μM together with TNFα to count the number of neutrophils permeating the vascular endothelial cell layer from the upper chamber into the lower chamber and the number of neutrophils adhering to the endothelial cell layer in the same manner as described above, and thereafter the migration and adhesion (%) of neutrophils were calculated.
The migration and adhesion percentages of neutrophils were expressed as relative values of the numbers of neutrophils that migrated or adhered in the group treated with the drug as compared with neutrophils in a negative control group.

platelets = assay: Ex vivo collagen-induced platelet aggregation assay; format: in vivo, rats; details: 3-6 μg/ml collagen
Experimental: An evaluation was made to determine whether or not collagen-induced platelet aggregation is inhibited by 4(S)-OH-DHA.
Male SD rats (SPF, 9 weeks of age) were anesthetized and then blood was collected from the abdominal aorta into a tube containing 3.8% sodium citrate (Chitoral from Yamanouchi Pharmaceutical Co., Ltd.). The tube was centrifuged at 900 rpm at room temperature for 10 minutes to collect the supernatant (PRP, platelet-rich fraction), and the residue was further centrifuged at 2500 rpm for 15 minutes to collect the supernatant (PPP, platelet-poor fraction).
A cuvette containing PPP (platelet-poor fraction) was placed in an incubator for PPP at 37° C. in an aggregometer (Hematracer 240 12 ch, from MCM). Then, a cuvette containing 200 μl of PRP (platelet-rich fraction) was placed in a reactor for PRP. The cuvettes were stirred with a magnetic stirrer for 30 seconds to automatically correct the permeability of PPP to T650 nm=100% and the permeability of PRP to T650 nm=0%.
After 1 minute, 20 μl of collagen (from MCM) was added and subsequent changes in permeability were recorded for 5 minutes. The permeability increases with platelet aggregation. The permeability T at maximum aggregation, i.e. at the peak of aggregation was compared with the permeability T0 of a negative control to determine the degree of aggregation inhibition expressed in percentage using the following equation. Aggregation inhibition=(1−T/T0)×100
The aggregation induced by 3-6 μg/ml of collagen was evaluated in platelets prepared from blood collected at 2 instants, i.e. 10 minutes and 60 minutes after administration of 10 mg/kg of 4(S)-OH-DHA to the tail vain of male SD rats (SPF, 9 weeks of age). The aggregation was determined in animals treated with vehicle (physiological saline) as a control group.
As a control, a solvent (physiological saline) was used. Aggregation was induced by 3-6 μg/ml of collagen in platelets prepared from blood collected 10 minutes after administration of 10, 1 or 0.1 mg/kg of the test compound to the tail vain of rats.

Row | SMILES | PPARγ agonist activity compared with 15-deoxy-PG J2 positive control [1] | PPARγ agonist activity relative to the negative control group with no drug added ([1]; CAT activity after 24 hours) | also measured
1 | CC/C=C\C/C=C\C/C=C\C=C\[C@@H](O)C/C=C\C/C=C\CCC(=O)O [10(S)-OH-DHA] | comparable to or higher than that of 15-deoxy-PG J2 | about 3 times | –
2 | CC/C=C\C/C=C\C/C=C\C/C=C\C[C@H](O)/C=C/C=C\CCC(=O)O [8(S)-OH-DHA] | comparable to or higher than that of 15-deoxy-PG J2 | about 7 times | Blood sugar level [2]: 190 ± 20 mg/dL
3 | CC/C=C\C/C=C\CC(O)/C=C/C=C\C/C=C\C/C=C\CCC(=O)O (stereo not drawn) [14OH-DHA] | – | – | 25% inhibition concentration IC25 (rat aortic smooth muscle): 1.07 ± 0.34 µM
4 | CC/C=C\C/C=C\C[C@H](O)/C=C/C=C\C/C=C\C/C=C\CCC(=O)O [14(S)-OH-DHA] | comparable to or higher than that of 15-deoxy-PG J2 | about 7 times | Blood sugar level [2]: 220 ± 13 mg/dL
5 | CC/C=C\C/C=C\C/C=C\C[C@H](O)/C=C/C=C\C/C=C\CCC(=O)O [11(S)-OH-DHA] | comparable to or higher than that of 15-deoxy-PG J2 | about 3 times | –
6 | CC/C=C\C/C=C\C/C=C\C/C=C\C/C=C\C=C\[C@@H](O)CCC(=O)O [4(S)-OH-DHA] | comparable to or higher than that of 15-deoxy-PG J2 | about 3 times | Adhesion of neutrophils to the endothelial cell layer [3]: inhibited; Permeation (migration) of neutrophils through the endothelial cell layer [3]: inhibited; Platelet aggregation vs vehicle group (platelets; 1 mg/kg to tail vein, blood collected 10 minutes after administration): platelet aggregation was inhibited; Platelet aggregation vs vehicle group (platelets; 10 mg/kg to tail vein, blood collected 10 minutes after administration): platelet aggregation was inhibited; Platelet aggregation vs vehicle group (platelets; 10 mg/kg to tail vein, blood collected 60 minutes after administration): platelet aggregation was inhibited
7 | CC/C=C\C[C@H](O)/C=C/C=C\C/C=C\C/C=C\C/C=C\CCC(=O)O [17(S)-OH-DHA] | comparable to or higher than that of 15-deoxy-PG J2 | about 3 times | –
8 | CC/C=C\C/C=C\C/C=C\C/C=C\C/C=C\C/C=C\CCC(=O)O [DHA, docosahexaenoic acid, reference compound] | – | – | PPARγ transcription activity, ratio as compared with the negative control ([1]; test compound at 3 μM, CAT activity after 24 hours): 205±79%
